Measured values taken from paper PMC9007462 (Journal of Medicinal Chemistry, 2022).

Tests used:
Assay type in all cases: biochemical
Human ALDH3A1 [1] = biological target: T1, Human ALDH3A1 (Homo sapiens, UniProt P30838); test: DEAB analogues as substrates of ALDH3A1 (substrate activity and kinetics); details: for ALDH3A1 substrate activity: 10 μM compound as substrate, relative to activity with 10 μM 4-NBA (Figure S2)
T1 construct: made in house
T1 sequence (P30838 1-453): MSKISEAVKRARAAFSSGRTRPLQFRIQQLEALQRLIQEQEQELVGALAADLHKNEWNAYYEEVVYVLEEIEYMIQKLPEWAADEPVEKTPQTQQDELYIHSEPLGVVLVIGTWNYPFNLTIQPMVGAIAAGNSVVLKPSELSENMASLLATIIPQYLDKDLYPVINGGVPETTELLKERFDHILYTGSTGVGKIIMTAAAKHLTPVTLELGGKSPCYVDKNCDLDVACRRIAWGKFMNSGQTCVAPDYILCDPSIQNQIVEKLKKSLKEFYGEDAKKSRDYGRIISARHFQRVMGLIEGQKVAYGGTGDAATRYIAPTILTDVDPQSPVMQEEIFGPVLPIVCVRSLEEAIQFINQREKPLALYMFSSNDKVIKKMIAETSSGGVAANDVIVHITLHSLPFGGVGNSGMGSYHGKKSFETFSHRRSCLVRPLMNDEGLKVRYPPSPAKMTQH
Method: (§1) Human ALDH1A1, ALDH1A3, and ALDH3A1 were cloned and recombinantly expressed from the pET-30 Xa/LIC vector. Protein purification was achieved by affinity chromatography on a nickel-charged chelating Sepharose Fast Flow 5-mL column (His Trap column, Cytiva), which specifically binds the protein due to its N-terminal (His)6 tag, using an ÄKTA FPLC system (Cytiva), as previously described.[55] Enzymes including the His tag were stored at −80 °C in 20 mM Tris/HCl and 0.5 M NaCl, pH 8.0, until use. Reaction buffers were as follows: ALDH1A1 was assayed in 50 mM HEPES, 0.5 mM EDTA, and 0.5 mM DTT, pH 8.0; ALDH1A3 was assayed in 50 mM HEPES, 30 mM MgCl2, and 5 mM DTT, pH 8.0; and ALDH3A1 was assayed in 50 mM Tris–HCl and 5 mM DTT, pH 8.0. Activity under standard conditions was measured fluorimetrically at 25 °C using a Cary Eclipse (Varian) fluorimeter to follow the purification procedure and to check the enzyme concentration before each kinetic experiment. The fluorescence of NADH was characterized at 460 nm with excitation at 340 nm, and 5 μM NAD(P)H was added as an internal standard to obtain the absolute reaction rates.[55] Standard activity was measured at saturating concentrations of substrate using 30 μM hexanal (ALDH1A1), 250 μM hexanal (ALDH1A3), or 250 μM 4-NBA (ALDH3A1). NAD^+ was 500 μM for ALDH1A1 and ALDH1A3, and NADP^+ was 1 mM for ALDH3A1.
(§2) According to their structure with a carbonyl group, compounds were tested for their substrate properties against ALDH1A1, ALDH1A3, and ALDH3A1. […] Results are expressed as the percentage of activity at 10 μM versus the activity at 10 μM of their standard substrate (hexanal or 4-NBA). Values are expressed as the mean ± SE.
To calculate the Km value of compound 18 as a substrate for ALDH3A1, several concentrations of compound 18 were used. Experimental values were fitted to the adaptation of the Michaelis–Menten equation for substrate inhibition [drawing 1] and shown as the mean ± SE.

Human ALDH1A1 = biological target: T2, Human ALDH1A1 (Homo sapiens, UniProt P00352); test: DEAB analogues as substrates of ALDH1A1; details: 10 μM compound as substrate, relative to activity with 10 μM hexanal (Figure S2)
T2 construct: made in house
T2 sequence (P00352 1-501): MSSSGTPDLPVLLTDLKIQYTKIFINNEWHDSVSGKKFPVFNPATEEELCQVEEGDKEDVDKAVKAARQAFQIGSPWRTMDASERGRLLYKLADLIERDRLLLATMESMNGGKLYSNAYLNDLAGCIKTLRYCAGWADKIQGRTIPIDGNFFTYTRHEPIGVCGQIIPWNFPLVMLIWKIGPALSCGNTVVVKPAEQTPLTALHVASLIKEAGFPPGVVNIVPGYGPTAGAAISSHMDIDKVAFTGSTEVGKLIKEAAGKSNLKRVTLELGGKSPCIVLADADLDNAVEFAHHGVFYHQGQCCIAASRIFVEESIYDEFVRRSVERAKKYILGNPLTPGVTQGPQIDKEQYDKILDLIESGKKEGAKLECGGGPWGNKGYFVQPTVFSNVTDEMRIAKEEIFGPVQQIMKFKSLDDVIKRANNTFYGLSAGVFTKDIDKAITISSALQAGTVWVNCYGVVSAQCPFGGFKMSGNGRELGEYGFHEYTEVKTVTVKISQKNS
Method: as §1, §2

Human ALDH3A1 [2] = biological target: T1, Human ALDH3A1; test: ALDH3A1 inhibition, IC50, Ki and type of inhibition; details: for IC50: 31 μM 4-NBA as substrate

| Compound | ALDH3A1 substrate activity (Human ALDH3A1 [1]) | Ksi as ALDH3A1 substrate (Human ALDH3A1 [1]; fit to substrate inhibition equation, mean ± SE) [µM] | Km (Human ALDH3A1 [1]; mean ± SE) [µM] | kcat as ALDH3A1 substrate (Human ALDH3A1 [1]; mean ± SE) [min^–1] | ALDH1A1 substrate activity (Human ALDH1A1) [%] | IC50 (Human ALDH3A1 [2]; mean ± SE) [µM] | type of inhibition ALDH3A1 (Human ALDH3A1 [2]; 4-NBA as substrate) | Ki (Human ALDH3A1 [2]; 4-NBA as substrate, fit to competitive inhibition equation, mean ± SE) [µM] | IC50 with versus without preincubation with the cofactor NADP+ (Human ALDH3A1 [2]; 5-min preincubation) |
| --- | --- | --- | --- | --- | --- | --- | --- | --- | --- |
| CCCN(CCC)c1ccc(C=O)cc1[N+](=O)[O-] [Compound 18, 4-(Dipropylamino)-3-Nitrobenzaldehyde] | 4.21% | 113 ± 25 | 2.82 ± 0.35 | 13.4 ± 0.7 | 17 | 1.61 ± 0.17 | competitive | 0.3 ± 0.06 | no differences were observed |
| CCCN(CCC)c1ccc(C=O)cc1Br [Compound 14, 3-Bromo-4-(dipropylamino)benzaldehyde] | lower than 5% |  |  |  |  | 8 ± 1.56 |  |  |  |
